A word on the IC50: it is the concentration that gives 50% inhibition. The term EC50 denotes the concentration at which the effect is half-maximal.

SMILES strings stand for the structures.

One experiment addresses T1, IRAK4 enzyme (Homo sapiens, UniProt Q9NWZ3).
T1 construct: purchased Carna Biosciences, Chuo-ku, Kobe, Japan
T1 sequence (Q9NWZ3 1-460): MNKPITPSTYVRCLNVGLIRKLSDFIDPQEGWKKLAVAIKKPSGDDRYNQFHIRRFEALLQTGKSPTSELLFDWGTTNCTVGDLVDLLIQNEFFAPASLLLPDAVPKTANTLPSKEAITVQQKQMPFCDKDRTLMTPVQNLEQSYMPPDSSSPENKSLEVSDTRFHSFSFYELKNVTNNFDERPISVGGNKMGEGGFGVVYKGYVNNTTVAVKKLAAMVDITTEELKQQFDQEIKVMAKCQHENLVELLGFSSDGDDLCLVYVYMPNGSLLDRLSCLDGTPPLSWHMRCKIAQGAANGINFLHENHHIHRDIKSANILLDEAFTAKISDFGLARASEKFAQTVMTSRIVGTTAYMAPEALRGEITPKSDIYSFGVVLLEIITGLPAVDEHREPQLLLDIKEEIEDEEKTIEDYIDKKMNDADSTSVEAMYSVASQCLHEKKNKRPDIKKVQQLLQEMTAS
The experiment is described as follows: IRAK4 Biochemical Assay (TR-FRET, STK1 KinEASE). Particulars: 500 μM ATP, Table 2 second part (compounds 33-343), read-out: IC50 IRAK4-HTBS. The procedure, abridged: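 Human IRAK4 (0.75 nM) preincubated 15 min with compound and 2 μM STK1 peptide, then reacted 120 min at room temperature with 500 μM ATP in HEPES pH 7.0 buffer with MgCl2 and DTT. EDTA stop with Cryptate anti-phosphopeptide antibody and tracer, 60 min; TR-FRET read as 665/615 nm ratio.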

The subject of the next experiment is TNFα. The experiment is described as follows: IRAK4 Monocyte TNFα Cell Based Assay (LPS-stimulated, TR-FRET TNFα detection). Details: species or system human. As to conditions: Homo sapiens, Monocyte, human monocytes, LPS-stimulated; Table 2 second part (compounds 33-343); read-out: EC50 MONO TNF HTRF. The method, boiled down:
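Monocytes (5,000 cells/well) treated with compound (0.1% DMSO) for 1 hour at 37° C, then stimulated with 50 pg/ml LPS for 4 hours. TNFα in medium quantified by TR-FRET two-antibody detection after overnight room-temperature incubation. Percent of control calculated against unstimulated (0%) and LPS-stimulated (100%) cells.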
(In general: Time-resolved FRET reads energy transfer from a long-lived donor to a nearby acceptor.)

Regarding `CC(C)Nc1cc(-c2ccc3cc(C#N)cnn23)ncc1-c1nnc(N2C[C@H]3CC[C@@H](C2)[C@@H]3NC(=O)C2(C)CCOCC2)s1` [Example 95, N-((1R,5S,8s)-3-(5-(6-(3-cyanopyrrolo[1,2-b]pyridazin-7-yl)-4-(isopropylamino)pyridin-3-yl)-1,3,4-thiadiazol-2-yl)-3-azabicyclo[3.2.1]octan-8-yl)-4-methyltetrahydro-2H-pyran-4-carboxamide], the IC50 on IRAK4 enzyme was determined as 0.7 nM. Besides, in the experiment on TNFα, the EC50 stood at 4.1 nM.

Take `CC(=O)N[C@H]1[C@@H]2CN(c3nnc(-c4cnc(-c5ccc6cc(C#N)cnn56)cc4NC(C)C)s3)C[C@@H]21` [Compound 240, N-((1R,5S,6s)-3-(5-(6-(3-cyanopyrrolo[1,2-b]pyridazin-7-yl)-4-(isopropylamino)pyridin-3-yl)-1,3,4-thiadiazol-2-yl)-3-azabicyclo[3.1.0]hexan-6-yl)acetamide]: the 50% inhibitory concentration (IC50) on IRAK4 enzyme amounted to 0.15 nM. The EC50 in the experiment on TNFα stood at 8.9 nM.

As for `CNc1cc(-c2ccc3cc(C#N)cnn23)ncc1-c1nnc(N2C[C@H]3CC[C@@H](C2)[C@@H]3NC(C)=O)s1` [Compound 292, N-((1R,5S,8s)-3-(5-(6-(3-cyanopyrrolo[1,2-b]pyridazin-7-yl)-4-(methylamino)pyridin-3-yl)-1,3,4-thiadiazol-2-yl)-3-azabicyclo[3.2.1]octan-8-yl)acetamide], at IRAK4 enzyme, the IC50 came out at 0.2 nM. The half-maximal effective concentration (EC50) with TNFα was found to be 6.7 nM.

For `N#Cc1cnn2c(-c3cc(NC4COC4)c(-c4nnc([C@H]5CC[C@@H](NC(=O)C6CC6)CC5)s4)cn3)ccc2c1` [Example 203, N-((1s,4s)-4-(5-(6-(3-cyanopyrrolo[1,2-b]pyridazin-7-yl)-4-(oxetan-3-ylamino)pyridin-3-yl)-1,3,4-thiadiazol-2-yl)cyclohexyl)cyclopropanecarboxamide], on IRAK4 enzyme, the IC50 was 0.83 nM. The 50% effective concentration (EC50) in the experiment on TNFα worked out at 13.7 nM.

Turning to `CC(C)Nc1cc(-c2ccc3cc(C#N)cnn23)ncc1-c1nnc(C(=O)N[C@H]2CC[C@@H](O)CC2)s1` [Example 224, 5-(6-(3-cyanopyrrolo[1,2-b]pyridazin-7-yl)-4-(isopropylamino)pyridin-3-yl)-N-((1s,4s)-4-hydroxycyclohexyl)-1,3,4-thiadiazole-2-carboxamide], on IRAK4 enzyme, the concentration for half-maximal inhibition (IC50) was 1.12 nM. For the same compound, the half-maximal effective concentration (EC50) with TNFα is 4770 nM.

On to `CNC(=O)N[C@H]1CC[C@H](c2nnc(-c3cnc(-c4ccc5cc(C#N)cnn45)cc3NC(C)C)s2)CC1` [Example 140, 1-((1r,4r)-4-(5-(6-(3-cyanopyrrolo[1,2-b]pyridazin-7-yl)-4-(isopropylamino)pyridin-3-yl)-1,3,4-thiadiazol-2-yl)cyclohexyl)-3-mcthylurea], for which, at IRAK4 enzyme, the half-maximal inhibitory concentration (IC50) came to 0.84 nM. Also, the concentration giving a half-maximal response (EC50) with TNFα worked out at 6.4 nM.

Turning to `CC(=O)N[C@H]1CC[C@H](c2nnc(-c3cnc(-c4ccc5cc(C#N)cnn45)cc3NC34CCC(O)(CC3)CC4)s2)CC1` [Compound 241, N-((1r,4r)-4-(5-(6-(3-cyanopyrrolo[1,2-b]pyridazin-7-yl)-4-((4-hydroxybicyclo[2.2.2]octan-1-yl)amino)pyridin-3-yl)-1,3,4-thiadiazol-2-yl)cyclohexyl)acctamide], the IC50 on IRAK4 enzyme is 1.39 nM. Further, the half-maximal effective concentration (EC50) in the experiment with TNFα came out at 4.8 nM.

On to `CC(C)Nc1cc(-c2ccc3cc(C#N)cnn23)ncc1-c1nnc([C@H]2CC[C@H](NC(=O)C3CC3)CC2)s1` [Example 125, N-((1r,4r)-4-(5-(6-(3-cyanopyrrolo[1,2-b]pyridazin-7-yl)-4-(isopropylamino)pyridin-3-yl)-1,3,4-thiadiazol-2-yl)cyclohexyl)cyclopropanecarboxamide], for which the IC50 on IRAK4 enzyme amounted to 0.25 nM. Also, the half-maximal effective concentration (EC50) with TNFα was determined as 5.4 nM.

Take `CC(=O)N[C@@H]1[C@@H]2CC[C@H]1CN(c1nnc(-c3cnc(-c4ccc5cc(C#N)cnn45)cc3NC3(C)CCOCC3)s1)C2` [Compound 272, N-((1R,5S,8s)-3-(5-(6-(3-cyanopyrrolo[1,2-b]pyridazin-7-yl)-4-((4-methyltetrahydro-2H-pyran-4-yl)amino)pyridin-3-yl)-1,3,4-thiadiazol-2-yl)-3-azabicyclo[3.2.1]octan-8-yl)acetamide]: on IRAK4 enzyme, the half-maximal inhibitory concentration (IC50) was 1.1 nM. The EC50 in the experiment on TNFα stood at 4.1 nM.

These data come from US12060351B2, “Thiadiazole IRAK4 inhibitors” (Gilead Sciences, Inc., priority 2018, dated 2024).
